Where two headings read alike, the source gives them in different places.
Assays:
fibroblasts = fibroblasts treated with KD025; cited from earlier work
[1] = tested on: murine autoimmune disease; conditions: KD025 administration; cited from earlier work
[2] = 12-16 weeks of dosing in healthy volunteers and patients; cited from earlier work
[3] = tested on: chronic hepatitis C infection; conditions: cited from earlier work
Hepatic stellate cells = test: Gel contraction assay (TGFβ1-induced); type: cell-based; conditions: test compound at 100 μM, 1 hour pretreatment, TGFβ1 24 hours
Procedure: Hepatic stellate cells were plated onto collagen coated plates and pretreated with test compound (at 100 μM) for 1 hour. TGFβ1 is then added for 24 hours, and images are taken.

ROCK2 = target: T1, ROCK2 (Homo sapiens, UniProt O75116); test: ROCK2 kinase binding affinity, DiscoverX KINOMEscan KdELECT; conditions: for ROCK2 Selectivity: selectivity for ROCK2 over ROCK1 from Kd
T1 construct: T7 phage fusion (kinase-tagged phage) or DNA tag for qPCR detection
How it was run: (§1)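 Competition binding of DNA- or phage-tagged kinase to immobilised ligand beads, with bound kinase quantified by qPCR of eluates.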

ROCK1 = target: T2, ROCK1 (Homo sapiens, UniProt Q13464); test: ROCK1 kinase binding affinity, DiscoverX KINOMEscan KdELECT; conditions: 11-point 3-fold dilution
T2 construct: T7 phage fusion (kinase-tagged phage) or DNA tag for qPCR detection
How it was run: as §1

HCC = HCC patients at advanced stage; cited from earlier work
[4] = KINOMEscan KdELECT, 11-point 3-fold dilution, read-out: Kd (μM) ROCK2

T1 sequence (O75116 whole entry, the tested form may be a part): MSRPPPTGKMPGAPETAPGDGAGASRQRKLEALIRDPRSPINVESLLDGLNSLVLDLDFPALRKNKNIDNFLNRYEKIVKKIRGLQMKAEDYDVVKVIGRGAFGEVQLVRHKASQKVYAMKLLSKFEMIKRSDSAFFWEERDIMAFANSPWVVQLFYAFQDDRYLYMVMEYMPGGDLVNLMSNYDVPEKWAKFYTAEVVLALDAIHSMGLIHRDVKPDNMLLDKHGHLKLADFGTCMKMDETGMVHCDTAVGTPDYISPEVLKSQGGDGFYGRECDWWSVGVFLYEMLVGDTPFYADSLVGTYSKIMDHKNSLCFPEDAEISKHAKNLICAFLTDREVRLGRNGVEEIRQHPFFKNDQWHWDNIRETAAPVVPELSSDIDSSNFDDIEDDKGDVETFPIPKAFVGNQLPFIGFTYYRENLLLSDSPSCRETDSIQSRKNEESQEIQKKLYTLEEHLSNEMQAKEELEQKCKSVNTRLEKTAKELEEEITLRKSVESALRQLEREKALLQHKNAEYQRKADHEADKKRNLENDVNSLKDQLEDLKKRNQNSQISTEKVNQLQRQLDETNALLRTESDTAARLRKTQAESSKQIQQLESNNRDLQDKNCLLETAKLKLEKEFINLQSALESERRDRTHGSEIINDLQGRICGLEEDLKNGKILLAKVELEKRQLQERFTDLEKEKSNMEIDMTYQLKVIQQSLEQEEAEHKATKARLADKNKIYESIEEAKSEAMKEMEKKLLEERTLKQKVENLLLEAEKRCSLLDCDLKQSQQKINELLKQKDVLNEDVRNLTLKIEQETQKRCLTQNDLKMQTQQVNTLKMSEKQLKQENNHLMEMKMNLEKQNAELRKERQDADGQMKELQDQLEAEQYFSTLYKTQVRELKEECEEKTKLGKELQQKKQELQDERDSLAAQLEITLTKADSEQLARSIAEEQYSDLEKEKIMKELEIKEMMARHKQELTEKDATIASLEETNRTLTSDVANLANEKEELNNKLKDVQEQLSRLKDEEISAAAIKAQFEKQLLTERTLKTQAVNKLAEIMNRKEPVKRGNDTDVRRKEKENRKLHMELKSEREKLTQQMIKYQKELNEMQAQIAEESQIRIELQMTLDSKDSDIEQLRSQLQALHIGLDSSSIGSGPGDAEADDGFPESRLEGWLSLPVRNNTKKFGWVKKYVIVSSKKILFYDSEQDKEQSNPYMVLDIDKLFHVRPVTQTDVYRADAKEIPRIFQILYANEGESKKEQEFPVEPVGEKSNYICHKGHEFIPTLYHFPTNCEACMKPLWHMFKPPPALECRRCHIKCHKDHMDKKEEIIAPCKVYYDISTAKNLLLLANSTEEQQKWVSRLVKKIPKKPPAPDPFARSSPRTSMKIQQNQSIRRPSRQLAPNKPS
T2 sequence (Q13464 whole entry, the tested form may be a part): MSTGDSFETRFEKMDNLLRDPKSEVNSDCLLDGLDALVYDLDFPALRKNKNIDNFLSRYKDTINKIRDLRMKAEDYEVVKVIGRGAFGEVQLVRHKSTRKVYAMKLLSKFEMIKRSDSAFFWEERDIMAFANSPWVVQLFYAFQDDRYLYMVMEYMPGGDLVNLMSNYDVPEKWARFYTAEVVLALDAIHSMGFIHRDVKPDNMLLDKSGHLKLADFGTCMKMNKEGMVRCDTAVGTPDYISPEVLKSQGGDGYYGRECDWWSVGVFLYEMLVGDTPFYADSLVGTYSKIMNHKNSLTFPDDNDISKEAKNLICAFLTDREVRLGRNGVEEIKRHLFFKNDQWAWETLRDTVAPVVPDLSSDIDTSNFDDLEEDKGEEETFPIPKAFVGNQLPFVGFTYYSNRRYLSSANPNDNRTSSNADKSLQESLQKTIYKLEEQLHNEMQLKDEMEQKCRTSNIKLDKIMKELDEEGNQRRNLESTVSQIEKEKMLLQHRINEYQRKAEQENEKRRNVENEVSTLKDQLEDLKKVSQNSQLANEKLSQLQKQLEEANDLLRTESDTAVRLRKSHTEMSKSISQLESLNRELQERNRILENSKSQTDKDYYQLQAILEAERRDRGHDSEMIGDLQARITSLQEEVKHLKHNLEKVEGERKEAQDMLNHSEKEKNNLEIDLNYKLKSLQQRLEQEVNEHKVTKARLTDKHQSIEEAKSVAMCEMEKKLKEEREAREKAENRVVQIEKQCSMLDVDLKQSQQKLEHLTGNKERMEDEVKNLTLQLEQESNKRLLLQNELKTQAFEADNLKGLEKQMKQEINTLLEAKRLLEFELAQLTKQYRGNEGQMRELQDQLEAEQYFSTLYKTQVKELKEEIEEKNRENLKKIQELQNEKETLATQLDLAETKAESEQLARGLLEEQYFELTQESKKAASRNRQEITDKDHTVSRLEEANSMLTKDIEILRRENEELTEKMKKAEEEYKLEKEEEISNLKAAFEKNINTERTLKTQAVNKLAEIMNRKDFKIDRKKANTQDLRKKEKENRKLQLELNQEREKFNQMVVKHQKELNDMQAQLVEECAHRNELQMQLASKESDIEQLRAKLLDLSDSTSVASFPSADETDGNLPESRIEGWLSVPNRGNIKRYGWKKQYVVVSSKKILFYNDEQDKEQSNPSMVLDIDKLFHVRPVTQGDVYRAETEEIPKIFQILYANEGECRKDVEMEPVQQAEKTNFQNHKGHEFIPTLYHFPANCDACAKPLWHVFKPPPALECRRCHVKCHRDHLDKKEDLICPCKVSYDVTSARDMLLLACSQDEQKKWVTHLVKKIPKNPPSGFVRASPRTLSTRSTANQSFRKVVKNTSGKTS

Compound	Kd (ROCK2; [4]) [µM]	ROCK2 Selectivity (ROCK2)	Kd (ROCK1) [µM]	further results
CC(C)NC(=O)COc1cccc(-c2nc(Nc3ccc4[nH]ncc4c3)c3ccccc3n2)c1 [KD025]				expression of profibrotic mRNA including CTGF (fibroblasts): decreased; expression of pro-inflammatory, fibrosis-linked cytokines [1]: decreased; murine autoimmune disease [1]: mitigated; hemodynamic or other side effects [2]: no hemodynamic or other side effects
interferon				response to antiviral therapy ([3]; in combination with ribavirin): ~50%; response to antiviral therapy ([3]; used alone): ~20%
O[C@H]1CC[C@@H](Nc2nccc(-c3nccc(C#Cc4ccc5[nH]nc(F)c5c4)n3)n2)CC1 [Ex. 93, (1s,4s)-4-((4-((3-Fluoro-1H-Indazol-5-yl)ethynyl)-[2,4′-bipyrimidin]-2′-yl)amino)cyclohexanol]	< 0.01	**** (>500-fold selectivity for ROCK2)	1 to 9.9	TGFβ1-induced gel contraction in hepatic stellate cells (Hepatic stellate cells): significantly attenuated
CNC(=O)c1cc(Oc2ccc(NC(=O)Nc3ccc(Cl)c(C(F)(F)F)c3)cc2)ccn1 [sorafenib]				extension of median survival (HCC): less than 3 months
CC(Nc1nccc(-c2nccc(C#Cc3ccc4[nH]ncc4c3)n2)n1)c1ccc(F)cn1 (centres unmarked) [Ex. 28, 4-((1H-Indazol-5-yl)ethynyl)-N-(1-(5-fluoropyridin-2-yl)ethyl)-[2,4′-bipyrimidin]-2′-amine]	0.01 to 0.099	* (<50-fold selectivity for ROCK2)	1 to 9.9	
C[C@H](O)CNc1nccc(-c2nccc(C#Cc3ccc4[nH]ncc4c3)n2)n1 [Ex. 80, (S)-1-((4-((1H-Indazol-5-yl)ethynyl)-[2,4′-bipyrimidin]-2′-yl)amino)propan-2-ol]		** (50 to 150-fold selectivity for ROCK2)	1 to 9.9	Kd (ROCK2): 0.1 to 0.99 µM
Fc1cc(C#Cc2ccnc(-c3ccnc(NCC4CCCO4)n3)n2)cc2cn[nH]c12 (centres unmarked) [Ex. 49, 4-((7-Fluoro-1H-indazol-5-yl)ethynyl)-N-((tetrahydrofuran-2-yl)methyl)-[2,4′-bipyrimidin]-2′-amine]	< 0.01	*** (151 to 500-fold selectivity for ROCK2)	1 to 9.9	
Fc1cccc(CNc2nccc(-c3nccc(C#Cc4ccc5[nH]ncc5c4)n3)n2)n1 [Ex. 32, 4-((1H-Indazol-5-yl)ethynyl)-N-((6-fluoropyridin-2-yl)methyl)-[2,4′-bipyrimidin]-2′-amine]	0.01 to 0.099	** (50 to 150-fold selectivity for ROCK2)	1 to 9.9	
CC1(O)CN(C(=O)CNc2nccc(-c3nccc(C#Cc4ccc5[nH]ncc5c4)n3)n2)C1 [Ex. 84, 2-((4-((1H-Indazol-5-yl)ethynyl)-[2,4′-bipyrimidin]-2′-yl)amino)-1-(3-hydroxy-3-methylazetidin-1-yl)ethanone]	0.01 to 0.099	* (<50-fold selectivity for ROCK2)	1 to 9.9	
C(#Cc1ccnc(-c2ccnc(NCC3CCCN3)n2)n1)c1ccc2[nH]ncc2c1 (centres unmarked) [Ex. 5, 4-((1H-Indazol-5-yl)ethynyl)-N-(pyrrolidin-2-ylmethyl)-[2,4′-bipyrimidin]-2′-amine]	0.01 to 0.099	* (<50-fold selectivity for ROCK2)	0.1 to 0.99	
Fc1cc(F)c(F)c(CNc2nccc(-c3nccc(C#Cc4ccc5[nH]ncc5c4)n3)n2)c1 [Ex. 37, 4-((1H-Indazol-5-yl)ethynyl)-N-(2,3,5-trifluorobenzyl)-[2,4′-bipyrimidin]-2′-amine]	0.01 to 0.099	*** (151 to 500-fold selectivity for ROCK2)	1 to 9.9	
COc1ccnc(CNc2nccc(-c3nccc(C#Cc4ccc5[nH]ncc5c4)n3)n2)c1 [Ex. 11, 4-((1H-Indazol-5-yl)ethynyl)-N-((4-methoxypyridin-2-yl)methyl)-[2,4′-bipyrimidin]-2′-amine]	0.01 to 0.099	** (50 to 150-fold selectivity for ROCK2)	0.1 to 0.99	
Fc1ccc(CNc2nccc(-c3nccc(C#Cc4ccc5[nH]ncc5c4)n3)n2)cn1 [Ex. 47, 4-((1H-Indazol-5-yl)ethynyl)-N-((6-fluoropyridin-3-yl)methyl)-[2,4′-bipyrimidin]-2′-amine]	0.01 to 0.099	** (50 to 150-fold selectivity for ROCK2)	1 to 9.9	
C(#Cc1ccnc(-c2ccnc(NC[C@H]3CCCO3)n2)n1)c1ccc2[nH]ncc2c1 [Ex. 34, (R)-4-((1H-Indazol-5-yl)ethynyl)-N-((tetrahydrofuran-2-yl)methyl)-[2,4′-bipyrimidin]-2′-amine]	< 0.01	*** (151 to 500-fold selectivity for ROCK2)	0.1 to 0.99	
CN(C)C(=O)CNc1nccc(-c2nccc(C#Cc3ccc4[nH]ncc4c3)n2)n1 [Ex. 19, 2-((4-((1H-Indazol-5-yl)ethynyl)-[2,4′-bipyrimidin]-2′-yl)amino)-N,N-dimethylacetamide]	0.01 to 0.099	** (50 to 150-fold selectivity for ROCK2)	0.1 to 0.99	
C(#Cc1ccnc(-c2ccnc(NCC3CCCO3)n2)n1)c1ccc2[nH]ncc2c1 (centres unmarked) [Ex. 17, 4-((1H-Indazol-5-yl)ethynyl)-N-((tetrahydrofuran-2-yl)methyl)-[2,4′-bipyrimidin]-2′-amine]	< 0.01	*** (151 to 500-fold selectivity for ROCK2)	0.1 to 0.99	
Fc1cccc(F)c1CNc1nccc(-c2nccc(C#Cc3ccc4[nH]ncc4c3)n2)n1 [Ex. 27, 4-((1H-Indazol-5-yl)ethynyl)-N-(2,6-difluorobenzyl)-[2,4′-bipyrimidin]-2′-amine]	0.1 to 0.99	** (50 to 150-fold selectivity for ROCK2)	10 to 100	
Fc1cncc(CNc2nccc(-c3nccc(C#Cc4ccc5[nH]ncc5c4)n3)n2)c1 [Ex. 29, 4-((1H-Indazol-5-yl)ethynyl)-N-((5-fluoropyridin-3-yl)methyl)-[2,4′-bipyrimidin]-2′-amine]	0.1 to 0.99	* (<50-fold selectivity for ROCK2)	1 to 9.9	
O=C(CNc1nccc(-c2nccc(C#Cc3ccc4[nH]ncc4c3)n2)n1)N1CCCC1 [Ex. 52, 2-((4-((1H-Indazol-5-yl)ethynyl)-[2,4′-bipyrimidin]-2′-yl)amino)-1-(pyrrolidin-1-yl)ethanone]	< 0.01	** (50 to 150-fold selectivity for ROCK2)	0.1 to 0.99	
O=S1(=O)CC[C@H](Nc2nccc(-c3nccc(C#Cc4ccc5[nH]ncc5c4)n3)n2)C1 [Ex. 83, (S)-3-((4-((1H-Indazol-5-yl)ethynyl)-[2,4′-bipyrimidin]-2′-yl)amino)tetrahydrothiophene 1,1-dioxide]	< 0.01	*** (151 to 500-fold selectivity for ROCK2)	0.1 to 0.99	
C(#Cc1ccnc(-c2ccnc(NCc3ncccn3)n2)n1)c1ccc2[nH]ncc2c1 [Ex. 7, 4-((1H-indazol-5-yl)ethynyl)-N-(pyrimidin-2-ylmethyl)-[2,4′-bipyrimidin]-2′-amine]	0.01 to 0.099	* (<50-fold selectivity for ROCK2)	0.1 to 0.99	
O[C@H]1CC[C@H](Nc2nccc(-c3nccc(C#Cc4ccc5[nH]ncc5c4)n3)n2)CC1 [Ex. 63, (1r,4r)-4-((4-((1H-Indazol-5-yl)ethynyl)-[2,4′-bipyrimidin]-2′-yl)amino)cyclohexanol]	< 0.01	*** (151 to 500-fold selectivity for ROCK2)	1 to 9.9	
COc1cc(F)ccc1CNc1nccc(-c2nccc(C#Cc3ccc4[nH]ncc4c3)n2)n1 [Ex. 12, 4-((1H-Indazol-5-yl)ethynyl)-N-(4-fluoro-2-methoxybenzyl)-[2,4′-bipyrimidin]-2′-amine]	0.01 to 0.099	*** (151 to 500-fold selectivity for ROCK2)	1 to 9.9	
O[C@H]1CC[C@@H](Nc2nccc(-c3nccc(C#Cc4ccc5[nH]nc(F)c5c4)n3)n2)C1 [Ex. 94, (1S,3R)-3-((4-((3-Fluoro-1H-Indazol-5-yl)ethynyl)-[2,4′-bipyrimidin]-2′-yl)amino)cyclopentanol]	< 0.01	**** (>500-fold selectivity for ROCK2)	1 to 9.9	
Fc1cccc(CNc2nccc(-c3nccc(C#Cc4ccc5[nH]ncc5c4)n3)n2)c1F [Ex. 26, 4-((1H-Indazol-5-yl)ethynyl)-N-(2,3-difluorobenzyl)-[2,4′-bipyrimidin]-2′-amine]	0.01 to 0.099	** (50 to 150-fold selectivity for ROCK2)	1 to 9.9	

— patent US20230295131A1, “INHIBITORS OF RHO-ASSOCIATED COILED-COIL KINASE” (Angion Biomedica Corp., priority 2020, published 2023)
